Here are results for two compounds from PMC9492542, “Brain-restricted mTOR inhibition with binary pharmacology” (Nature, 2022).

Assay [1] concerns mTOR. Briefly: Immunoblot analysis of mTOR signalling (p-S6, p-4EBP1) in MCF7 cells, incl. screen for blocking of rapamycin/RapaLink-1. As to conditions: 10 nM RapaLink-1 + 10 µM blocker, immunoblot.
Assay [2] addresses T1, FKBP12 (Homo sapiens, UniProt P62942).
T1 construct: His-tag (HRV 3C cleavable) (cleaved yes); made in house; host or cells: Escherichia coli BL21(DE3)
Briefly: Competition fluorescence polarization assay with FITC-rapamycin tracer. The format is binding.
Method: Compound binding affinity was determined using a competition fluorescence polarization assay. […] The assay buffer was 20 mM HEPES pH 7.5 and 0.01% Triton X-100. […] Data were fitted to a three-parameter sigmoidal curve to derive IC50 values. Ki of the compounds were calculated using a tool provided by S. Wang’s laboratory (http://www.umich.edu/~shaomengwanglab/software/calc_ki/index.html). Data were plotted in GraphPad Prism 9.0.

Assay [3] relates to NFAT. Kind of assay: NFAT activation assay (Jurkat-Lucia NFAT luciferase reporter, PMA/ionomycin). The class given is cell-based. The protocol: Jurkat-Lucia NFAT cells were resuspended to 2 × 10^6 cells per ml in fresh growth medium and dispensed in 96-well tissue culture plates (Corning 3904; 180 µl per well). DMSO solutions of test compounds at 100× the test concentrations were added and the cells were incubated for 4 h at 37 °C. A 10× stimulation solution containing phorbol myristate acetate (100 ng ml^–1) and ionomycin (10 µg ml^–1) were added to each well (20 µl per well) except for the negative control wells, which were supplemented with 20 µl medium. Cells were incubated at 37 °C for 12 h. Cells (20 µl per well) were transferred into a white opaque 96-well plate (Corning 3912). TECAN Spark 20M plate reader equipped with an auto-injection system was primed with Lucia luciferase substrate solution and set with the following parameters: 50 µl of injection volume, end-point measurement with a 4-s delay time and 0.1-s integration time. Luciferase activity was measured with the settings above and normalized to DMSO-treated, stimulated cells. Data were plotted in GraphPad Prism 9.0.

SMILES strings stand for the structures. Where “and” joins values, the source holds several entries; their conditions need not be identical. Equal values may be shown once.

T1 sequence (P62942 whole entry): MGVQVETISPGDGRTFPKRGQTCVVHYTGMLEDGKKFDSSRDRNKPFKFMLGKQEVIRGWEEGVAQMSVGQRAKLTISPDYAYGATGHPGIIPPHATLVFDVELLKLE

Take `CCON=C1C[C@H](O)[C@@H](C)[C@@H](/C(C)=C/[C@@H]2CC[C@@H](O)[C@H](OC)C2)OC(=O)[C@@H]2CCCCN2C(=O)C(=O)[C@]2(O)O[C@H]([C@@H](OC)C[C@@H](C)C/C(C)=C/[C@H]1CCCc1cccc[n+]1[O-])[C@@H](OC)C[C@H]2C` [RapaBlock ethyl oxime]: the results for the “blocking of mTOR inhibition by RapaLink-1 in cells” value in assay [1] and in assay [1] (listed as RapaBlock-Oxime) were “less potent at blocking RapaLink-1” and “much less effective at blocking the inhibition”, respectively. Moreover, the Ki in assay [2] was 360 nM.
Consider `C=CC[C@@H]1/C=C(\C)C[C@H](C)C[C@H](OC)[C@H]2O[C@@](O)(C(=O)C(=O)N3CCCC[C@H]3C(=O)O[C@H](/C(C)=C/[C@@H]3CC[C@@H](O)[C@H](OC)C3)[C@H](C)[C@@H](O)CC1=O)[C@H](C)C[C@@H]2OC` [FK506], for which the “NFAT luciferase activity, normalized to DMSO-treated stimulated cells” value is 103.4 and 90.3 and 99.2 in assay [3] (0.00512 nM); 93.6 and 87.2 and 91.4 in assay [3] (0.0256 nM); 35.5 and 35.2 and 38.5 in assay [3] (0.128 nM); 0.2 in assay [3] (0.64 nM); 0.1 in assay [3] (16 nM); 0.1 and 0.2 in assay [3] (80 nM). In addition, the “NFAT luciferase activity, normalized to DMSO-treated stimulated cells” value in assay [3] (400 nM) was 0.1 and 0.2; in assay [3] (2000 nM), 0.2; in assay [3] (10000 nM), 0.2. For the same compound, in assay [3] (Homo sapiens, Jurkat NFAT luciferase, PMA + ionomycin), the IC50 was determined as 0.094 ± 0.008 nM. In addition, the “fluorescence polarization (competition, raw)” value is 108 in assay [2] (0.0976562 nM compound); 110 and 109 in assay [2] (0.195312 nM compound); 108 in assay [2] (0.390625 nM compound); 107 and 103 in assay [2] (0.78125 nM compound); 104 and 103 in assay [2] (1.5625 nM compound); 92 and 96 in assay [2] (3.125 nM compound). In addition, the “fluorescence polarization (competition, raw)” value is 75 and 72 in assay [2] (6.25 nM compound); 66 and 60 in assay [2] (12.5 nM compound); 57 and 55 in assay [2] (25 nM compound); 53 and 55 in assay [2] (50 nM compound); 46 and 51 in assay [2] (100 nM compound).
